The NIST ThermoML archive (doi:10.1016/j.jct.2007.01.009)
Numbers after ± are expanded uncertainties.

Experiment: xn = mol fraction of the nth substance listed
Conditions: 101 kPa, Liquid, Pycnometric method

CCCCC(O)CO (configuration not stated) [1,2-hexanediol] + O
mass density [kg/m3]
Conditions	283.15 K	288.15 K	293.15 K	298.15 K	303.15 K	308.15 K
x1 = 0.0009	999.77 ± 0.31	999.33 ± 0.3	998.26 ± 0.28	997.06 ± 0.29	995.65 ± 0.3	993.92 ± 0.32
x1 = 0.0018	999.85 ± 0.31	999.35 ± 0.29	998.28 ± 0.28	997.06 ± 0.29	995.66 ± 0.3	993.92 ± 0.31
x1 = 0.0036	1000.05 ± 0.31	999.43 ± 0.29	998.39 ± 0.28	997.13 ± 0.29	995.76 ± 0.3	993.98 ± 0.32
x1 = 0.0055	1000.31 ± 0.31	999.57 ± 0.3	998.54 ± 0.29	997.24 ± 0.3	995.78 ± 0.31	994.13 ± 0.32
x1 = 0.0077	1000.69 ± 0.31	999.81 ± 0.3	998.75 ± 0.29	997.43 ± 0.3	995.64 ± 0.31	994.227 ± 0.32
x1 = 0.009	1000.93 ± 0.32	999.97 ± 0.3	998.86 ± 0.29	997.49 ± 0.3	995.53 ± 0.31	994.278 ± 0.32
x1 = 0.0106	1001.22 ± 0.31	1000.16 ± 0.3	998.97 ± 0.29	997.52 ± 0.3	995.37 ± 0.31	994.276 ± 0.32
x1 = 0.0124	1001.49 ± 0.31	1000.33 ± 0.3	999.03 ± 0.29	997.47 ± 0.3	995.17 ± 0.31	994.141 ± 0.32
x1 = 0.0143	1001.65 ± 0.31	1000.41 ± 0.3	999.01 ± 0.29	997.32 ± 0.3	994.93 ± 0.31	993.817 ± 0.33
x1 = 0.016	1001.69 ± 0.31	1000.38 ± 0.3	998.91 ± 0.29	997.13 ± 0.3	994.7 ± 0.31	993.395 ± 0.34
x1 = 0.0178	1001.64 ± 0.31	1000.25 ± 0.3	998.73 ± 0.29	996.87 ± 0.31	994.45 ± 0.31	992.869 ± 0.34
x1 = 0.0351	999.52 ± 0.32	997.75 ± 0.31	995.76 ± 0.3	993.77 ± 0.31	991.54 ± 0.32	988.24 ± 0.33
x1 = 0.0672	995.27 ± 0.33	993.06 ± 0.32	990.72 ± 0.31	988.37 ± 0.32	985.8 ± 0.33	981.847 ± 0.34
x1 = 0.0968	991.84 ± 0.34	989.37 ± 0.32	986.7 ± 0.31	983.93 ± 0.32	981.37 ± 0.33	977.569 ± 0.34
x1 = 0.1119	990.47 ± 0.34	987.91 ± 0.33	985.24 ± 0.32	982.11 ± 0.33	979.56 ± 0.34	975.746 ± 0.35

CC(O)CCCCO (configuration not stated) [1,5-hexanediol] + O
mass density [kg/m3]
Conditions	283.15 K	288.15 K	293.15 K	298.15 K	303.15 K	308.15 K
x1 = 0.001	999.62 ± 0.31	999.01 ± 0.29	998.08 ± 0.28	996.9 ± 0.29	995.49 ± 0.3	993.87 ± 0.32
x1 = 0.0021	999.54 ± 0.31	998.92 ± 0.29	997.97 ± 0.28	996.78 ± 0.29	995.34 ± 0.31	993.69 ± 0.32
x1 = 0.0037	999.45 ± 0.35	998.83 ± 0.29	997.87 ± 0.28	996.64 ± 0.29	995.17 ± 0.31	993.47 ± 0.36
x1 = 0.0053	999.39 ± 0.3	998.77 ± 0.29	997.8 ± 0.28	996.54 ± 0.29	995.05 ± 0.3	993.32 ± 0.32
x1 = 0.0071	999.38 ± 0.31	998.74 ± 0.29	997.74 ± 0.28	996.46 ± 0.29	994.97 ± 0.3	993.19 ± 0.49
x1 = 0.0089	999.41 ± 0.31	998.73 ± 0.29	997.7 ± 0.28	996.4 ± 0.29	994.91 ± 0.3	993.09 ± 0.32
x1 = 0.0111	999.49 ± 0.31	998.75 ± 0.29	997.68 ± 0.28	996.36 ± 0.29	994.86 ± 0.3	992.99 ± 0.32
x1 = 0.0145	999.68 ± 0.31	998.84 ± 0.29	997.7 ± 0.28	996.34 ± 0.29	994.79 ± 0.3	992.85 ± 0.32
x1 = 0.0194	1000.04 ± 0.31	999.07 ± 0.3	997.8 ± 0.28	996.37 ± 0.29	994.7 ± 0.3	992.68 ± 0.32
x1 = 0.0324	1001.21 ± 0.31	999.91 ± 0.3	998.22 ± 0.28	996.47 ± 0.3	994.45 ± 0.31	992.23 ± 0.32
x1 = 0.0507	1002.48 ± 0.31	1000.63 ± 0.3	998.55 ± 0.29	996.31 ± 0.3	994.04 ± 0.31	991.47 ± 0.32
x1 = 0.0738	1002.95 ± 0.31	1000.72 ± 0.3	998.24 ± 0.29	995.66 ± 0.3	993.05 ± 0.31	990.3 ± 0.32
